These are literature values, as cited in US9381220B2, “Sceletium extract and uses thereof” (H. L. Hall & Sons Limited, priority 2009, dated 2016).

Data set [1] concerns PDE4. The settings on record: Napoletano et al. 2001.
The target of data set [2] is 5-HT uptake (Homo sapiens, UniProt P31645). The following applies: as described in U.S. Pat. No. 6,288,104.
The conditions of data set [3]: fermentation, exposure to light, exposure to heat, aqueous medium.

Chain of 5-HT uptake (P31645 whole entry): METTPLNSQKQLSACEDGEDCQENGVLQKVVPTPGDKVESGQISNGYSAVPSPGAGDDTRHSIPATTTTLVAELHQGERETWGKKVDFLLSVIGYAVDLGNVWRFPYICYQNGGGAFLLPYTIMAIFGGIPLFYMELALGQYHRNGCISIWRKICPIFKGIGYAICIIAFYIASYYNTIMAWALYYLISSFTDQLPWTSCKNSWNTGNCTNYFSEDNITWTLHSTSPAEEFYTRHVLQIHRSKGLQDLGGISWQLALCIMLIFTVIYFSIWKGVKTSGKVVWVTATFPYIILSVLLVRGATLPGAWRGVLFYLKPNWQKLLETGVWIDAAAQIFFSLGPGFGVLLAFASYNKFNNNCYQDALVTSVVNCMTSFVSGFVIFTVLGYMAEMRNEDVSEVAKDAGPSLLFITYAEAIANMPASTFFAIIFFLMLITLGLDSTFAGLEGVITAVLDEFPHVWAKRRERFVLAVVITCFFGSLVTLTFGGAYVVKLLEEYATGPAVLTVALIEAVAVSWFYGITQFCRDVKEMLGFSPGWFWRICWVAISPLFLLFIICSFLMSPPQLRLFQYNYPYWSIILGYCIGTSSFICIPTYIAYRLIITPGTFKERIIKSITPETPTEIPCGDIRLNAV

In the case of `COc1ccc(C23CCC(=O)CC2N(C)CC3)cc1OC.Cl` (stereo not drawn) [Mesembrine hydrochloride], in data set [1], the PDE4 inhibition result is “weak PDE4 inhibitor”. As for `COc1ccc(C23C=CC(O)CC2N(C)CC3)cc1OC` (stereo not drawn) [mesembrenol], in data set [2], the “5-HT uptake inhibitory activity” value is “potent 5-HT uptake inhibitory activity”. For the compound `COc1ccc([C@@]23CCC(=O)C[C@@H]2N(C)CC3)cc1OC` [mesembrine], in data set [3], the stability result is listed as “unstable”.
